Reference: the supplement of paper PMC10307832

Experiments:
Experiment in all cases: relative viability (nuclei count vs DMSO), 5 days (fraction); higher = more cells survive
IA-LM = tested on: IA-LM
In short: (§1)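 Relative viability is defined as nuclei in treated wells over nuclei in vehicle wells. Duplicate plates were run and medians reported. Lung cancer cell lines in 1536-well plates were dosed by pin tool one day after seeding, with one drug or with a fixed anchor-drug dose plus five library-drug doses (not always all listed) in √10 steps, and nuclei were counted after 5 days.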

A549 = tested on: A549
In short: as §1

EKVX = tested on: EKVX
In short: as §1

HCC-44 = tested on: HCC-44
In short: as §1

ABC-1 = tested on: ABC-1
In short: as §1

NCI-H1703 = tested on: NCI-H1703
In short: as §1

NCI-H2085 = tested on: NCI-H2085
In short: as §1

NCI-H1993 = tested on: NCI-H1993
In short: as §1

NCI-H2126 = tested on: NCI-H2126
In short: as §1

Calu-6 = tested on: Calu-6
In short: as §1

RERF-LC-KJ = tested on: RERF-LC-KJ
In short: as §1

NCI-H1299 = tested on: NCI-H1299
In short: as §1

EBC-1 = tested on: EBC-1
In short: as §1

`O=c1cc(N2CCOCC2)oc2c(-c3cccc4c3sc3ccccc34)cccc12` + C[C@@H](Oc1cc(-c2cnn(C3CCNCC3)c2)cnc1N)c1c(Cl)ccc(F)c1Cl [Crizotinib] (partner 1 µM) was tested, and the relative viability (IA-LM; first compound 0.01 µM) was 0.965, the relative viability (IA-LM; first compound 0.03162 µM) was 0.694 and the relative viability (IA-LM; first compound 0.1 µM) was 0.683. It also gave a relative viability (IA-LM; first compound 0.3162 µM) of 0.732, a relative viability (IA-LM; first compound 1 µM) of 0.621 and a relative viability (A549; first compound 0.01 µM) of 0.771. For the same compound, the relative viability (A549; first compound 0.03162 µM) was 0.769, the relative viability (A549; first compound 0.1 µM) was 0.746 and the relative viability (A549; first compound 0.3162 µM) was 0.828. For the same compound, the relative viability (A549; first compound 1 µM) was 0.659, the relative viability (EKVX; first compound 0.01 µM) was 1.04 and the relative viability (EKVX; first compound 0.03162 µM) was 0.881. It also gave a relative viability (EKVX; first compound 0.1 µM) of 1.18, a relative viability (EKVX; first compound 0.3162 µM) of 0.915 and a relative viability (EKVX; first compound 1 µM) of 0.995. The relative viability (HCC-44; first compound 0.01 µM) was 0.862, the relative viability (HCC-44; first compound 0.03162 µM) was 0.811 and the relative viability (HCC-44; first compound 0.1 µM) was 0.814. The relative viability (HCC-44; first compound 0.3162 µM) was 0.788, the relative viability (HCC-44; first compound 1 µM) was 0.776 and the relative viability (ABC-1; first compound 0.01 µM) was 1.26. For the same compound, the relative viability (ABC-1; first compound 0.03162 µM) was 0.654, the relative viability (ABC-1; first compound 0.1 µM) was 0.983 and the relative viability (ABC-1; first compound 0.3162 µM) was 1.06. The relative viability (ABC-1; first compound 1 µM) was 1.11, the relative viability (NCI-H1703; first compound 0.01 µM) was 0.769 and the relative viability (NCI-H1703; first compound 0.03162 µM) was 0.604. It also gave a relative viability (NCI-H1703; first compound 0.1 µM) of 0.918, a relative viability (NCI-H1703; first compound 0.3162 µM) of 0.584 and a relative viability (NCI-H1703; first compound 1 µM) of 0.591. For the same compound, the relative viability (NCI-H2085; first compound 0.01 µM) was 0.941, the relative viability (NCI-H2085; first compound 0.03162 µM) was 0.89 and the relative viability (NCI-H2085; first compound 0.1 µM) was 0.879. The relative viability (NCI-H2085; first compound 0.3162 µM) was 0.841, the relative viability (NCI-H2085; first compound 1 µM) was 0.889 and the relative viability (NCI-H1993; first compound 0.01 µM) was 0.858. For the same compound, the relative viability (NCI-H1993; first compound 0.03162 µM) was 0.93, the relative viability (NCI-H1993; first compound 0.1 µM) was 0.928 and the relative viability (NCI-H1993; first compound 0.3162 µM) was 0.862. The relative viability (NCI-H1993; first compound 1 µM) was 0.943, the relative viability (NCI-H2126; first compound 0.01 µM) was 1.04 and the relative viability (NCI-H2126; first compound 0.03162 µM) was 1.01. For the same compound, the relative viability (NCI-H2126; first compound 0.1 µM) was 1.01, the relative viability (NCI-H2126; first compound 0.3162 µM) was 0.944 and the relative viability (NCI-H2126; first compound 1 µM) was 0.955. The relative viability (Calu-6; first compound 0.01 µM) was 0.858, the relative viability (Calu-6; first compound 0.03162 µM) was 0.857 and the relative viability (Calu-6; first compound 0.1 µM) was 0.793. For the same compound, the relative viability (Calu-6; first compound 0.3162 µM) was 0.759, the relative viability (Calu-6; first compound 1 µM) was 0.777 and the relative viability (RERF-LC-KJ; first compound 0.01 µM) was 0.838. The relative viability (RERF-LC-KJ; first compound 0.03162 µM) was 0.798, the relative viability (RERF-LC-KJ; first compound 0.1 µM) was 0.871 and the relative viability (RERF-LC-KJ; first compound 0.3162 µM) was 0.823. The relative viability (RERF-LC-KJ; first compound 1 µM) was 0.808, the relative viability (NCI-H1299; first compound 0.01 µM) was 0.949 and the relative viability (NCI-H1299; first compound 0.03162 µM) was 0.954. The relative viability (NCI-H1299; first compound 0.1 µM) was 0.973, the relative viability (NCI-H1299; first compound 0.3162 µM) was 0.637 and the relative viability (NCI-H1299; first compound 1 µM) was 0.923. For the same compound, the relative viability (EBC-1; first compound 0.01 µM) was 0.208, the relative viability (EBC-1; first compound 0.03162 µM) was 0.227 and the relative viability (EBC-1; first compound 0.1 µM) was 0.207. The relative viability (EBC-1; first compound 0.3162 µM) was 0.221 and the relative viability (EBC-1; first compound 1 µM) was 0.204.

With `CCN(CC)CCCCNc1ncc2cc(-c3cc(OC)cc(OC)c3)c(NC(=O)NC(C)(C)C)nc2n1` + C[C@@H](Oc1cc(-c2cnn(C3CCNCC3)c2)cnc1N)c1c(Cl)ccc(F)c1Cl [Crizotinib] (partner 1 µM) the relative viability (IA-LM; first compound 0.01 µM) was 0.766, the relative viability (IA-LM; first compound 0.03162 µM) was 0.629 and the relative viability (IA-LM; first compound 0.1 µM) was 1.02. For the same compound, the relative viability (IA-LM; first compound 0.3162 µM) was 0.97, the relative viability (IA-LM; first compound 1 µM) was 0.932 and the relative viability (A549; first compound 0.01 µM) was 0.782. The relative viability (A549; first compound 0.03162 µM) was 0.854, the relative viability (A549; first compound 0.1 µM) was 0.961 and the relative viability (A549; first compound 0.3162 µM) was 0.805. It also gave a relative viability (A549; first compound 1 µM) of 0.655, a relative viability (EKVX; first compound 0.01 µM) of 1.21 and a relative viability (EKVX; first compound 0.03162 µM) of 0.924. It also gave a relative viability (EKVX; first compound 0.1 µM) of 1.04, a relative viability (EKVX; first compound 0.3162 µM) of 0.841 and a relative viability (EKVX; first compound 1 µM) of 0.664. It also gave a relative viability (HCC-44; first compound 0.01 µM) of 0.775, a relative viability (HCC-44; first compound 0.03162 µM) of 0.855 and a relative viability (HCC-44; first compound 0.1 µM) of 0.853. For the same compound, the relative viability (HCC-44; first compound 0.3162 µM) was 0.971, the relative viability (HCC-44; first compound 1 µM) was 0.946 and the relative viability (ABC-1; first compound 0.01 µM) was 1.53. It also gave a relative viability (ABC-1; first compound 0.03162 µM) of 1.34, a relative viability (ABC-1; first compound 0.1 µM) of 1.18 and a relative viability (ABC-1; first compound 0.3162 µM) of 1.09. It also gave a relative viability (ABC-1; first compound 1 µM) of 0.905, a relative viability (NCI-H1703; first compound 0.01 µM) of 0.495 and a relative viability (NCI-H1703; first compound 0.03162 µM) of 0.584. For the same compound, the relative viability (NCI-H1703; first compound 0.1 µM) was 0.986, the relative viability (NCI-H1703; first compound 0.3162 µM) was 0.586 and the relative viability (NCI-H1703; first compound 1 µM) was 0.799. The relative viability (NCI-H2085; first compound 0.01 µM) was 0.983, the relative viability (NCI-H2085; first compound 0.03162 µM) was 0.917 and the relative viability (NCI-H2085; first compound 0.1 µM) was 0.943. For the same compound, the relative viability (NCI-H2085; first compound 0.3162 µM) was 0.895, the relative viability (NCI-H2085; first compound 1 µM) was 0.817 and the relative viability (NCI-H1993; first compound 0.01 µM) was 0.875. For the same compound, the relative viability (NCI-H1993; first compound 0.03162 µM) was 0.974, the relative viability (NCI-H1993; first compound 0.1 µM) was 0.875 and the relative viability (NCI-H1993; first compound 0.3162 µM) was 0.985. For the same compound, the relative viability (NCI-H1993; first compound 1 µM) was 0.783, the relative viability (NCI-H2126; first compound 0.01 µM) was 1.08 and the relative viability (NCI-H2126; first compound 0.03162 µM) was 0.992. It also gave a relative viability (NCI-H2126; first compound 0.1 µM) of 1.06, a relative viability (NCI-H2126; first compound 0.3162 µM) of 1.08 and a relative viability (NCI-H2126; first compound 1 µM) of 1.04. It also gave a relative viability (Calu-6; first compound 0.01 µM) of 0.943, a relative viability (Calu-6; first compound 0.03162 µM) of 0.784 and a relative viability (Calu-6; first compound 0.1 µM) of 0.899. For the same compound, the relative viability (Calu-6; first compound 0.3162 µM) was 1.02, the relative viability (Calu-6; first compound 1 µM) was 0.712 and the relative viability (RERF-LC-KJ; first compound 0.01 µM) was 0.84. For the same compound, the relative viability (RERF-LC-KJ; first compound 0.03162 µM) was 0.818, the relative viability (RERF-LC-KJ; first compound 0.1 µM) was 1.13 and the relative viability (RERF-LC-KJ; first compound 0.3162 µM) was 0.916. The relative viability (RERF-LC-KJ; first compound 1 µM) was 0.816, the relative viability (NCI-H1299; first compound 0.01 µM) was 1 and the relative viability (NCI-H1299; first compound 0.03162 µM) was 0.912. For the same compound, the relative viability (NCI-H1299; first compound 0.1 µM) was 1.02, the relative viability (NCI-H1299; first compound 0.3162 µM) was 0.972 and the relative viability (NCI-H1299; first compound 1 µM) was 0.89. The relative viability (EBC-1; first compound 0.01 µM) was 0.209, the relative viability (EBC-1; first compound 0.03162 µM) was 0.189 and the relative viability (EBC-1; first compound 0.1 µM) was 0.242. For the same compound, the relative viability (EBC-1; first compound 0.3162 µM) was 0.213 and the relative viability (EBC-1; first compound 1 µM) was 0.187.
